Test results published in patent US20160264593A1 (priority 2013, published 2016).
“And” between values parts separate entries of the source, which are not always exact repeats. Identical values can stand only once.

How the values were obtained:
PP2A [1] = assay: PP2A activity in mouse livers after IP dosing (PP2A immunoprecipitation phosphatase assay, malachite green); type: in vivo, Balb/c mice; conditions: liver
Procedure: (§1) Coomassie (Bradford) Protein Assay Kit (Pierce); PP2A Immunoprecipitation Phosphatase Assay Kit (Millipore); Lysate preparation for low endogenous phosphate: 20 mM imidazole-HCl, 2 mM EDTA, 2 mM EGTA, 1 mM PMSF, 1 mM benzamidine, 10 ug/ml each of aprotinin, leupeptin, antipain, soybean trypsin inhibitor; Normal Mouse IgG (Millipore); Okadaic acid (OA) (Tocris); DMSO (Sigma).
(§2) • Species: Mus Musculus • Strain: Balb/c mice • Age: 6-8 weeks • Sex: female • Body weight: 18-22 g • Vendor: Shanghai Laboratory Animal Center, Shanghai, China; • Number of animals: 66 Balb/c mice plus spare
(§3) The mice were kept in laminar flow rooms at constant temperature and humidity with 4 animals in each cage. • Temperature: 20-25 • Humidity: 40-70%. • Light cycle: 12 hours light and 12 hours dark. • Cages: Made of polycarbonate. The size is 29 cm×17.5 cm×12 cm (L×w×H). The bedding material is wood debris, which is changed once per week. • Diet: Animals had free access to irradiation sterilized dry granule food during the entire study period. • Water: Animals had free access to sterile drinking water. • Cage identification: the identification labels for each cage contained the following information: number of animals, sex, strain, date arrival, treatment, study number, group number, and the starting date of the treatment. • Animal identification: Animals were marked by ear punch.
(§4) All the procedures related to animal handling, care, and the treatment in this study were performed according to guidelines approved by the Institutional Animal Care and Use Committee (IACUC) of WuXi AppTec (Shanghai), following the guidance of the Association for Assessment and Accreditation of Laboratory Animal Care (AAALAC). At the time of routine monitoring, the animals were checked and recorded for any effects of tumor growth on normal behavior such as mobility, food and water consumption (by looking only), body weight gain/loss, eye/hair matting and any other abnormal effect.
(§5) 1. Proper amount of the compounds were weighed. 2. The compounds were dissolved in 4% sterile sodium bicarbonate. 3. All of the compounds should be well dissolved and clear. 4. The compounds should be kept cold once in solution and injected within an hour. 5. The mice were administered intraperitoneally according to their body weights, 20 g mouse was treated with 0.2 ml compound solution. 6. Mice were treated with vehicle and compounds according to Table 1. 7. 3 hours after the dose, 3 mice from each group were euthanized by
(§6) CO2 exposure, and the brains and left lobe of livers were taken and snap-frozen in liquid nitrogen immediately. 6 hours after the dose, the other 3 mice from each group were euthanized by CO2 exposure, and the brains and left lobe of livers were taken and snap-frozen in liquid nitrogen immediately.
(§7) Preparation of malachite green phosphate detection solution Added […] of Solution B to each 1 mL of Solution A, kept at room temperature during use. […] of mixed solution AB is used per assay well.
(§8) Diluted 125 mL Phosphate Standard (Solution C) with 1125 mL of distilled water to make 0.1 mM working solution. The solution was used to prepare a phosphate standard curve as described in the table below.
(§9) 1. 25 μL of each phosphate standards was transferred to wells of microliter plate. 2. Added 100 μL of Malachite Green Solution AB. Mixed carefully without creating bubbles. 3. Cultured for 15 minutes at RT. 4. Measured absorbance at a wavelength between 650 nm in a microliter plate reader.
(§10) 1. Dissolved 1 mg Threonine Phosphopeptide (Catalog #12-219) in 1.10 mL of distilled water to prepare a 1 mM solution. 2. Aliquot peptide solution and stored at ˜20° C. as necessary.
(§11) 1. Mouse brain or liver was homogenized using lysis buffer (25 g/L), centrifuged at 12000 g for 10 minutes at […], and the supernatants were collected. 2. The protein was quantitated, and 240 μg of mouse brain or liver lysate was taken to assay phosphatase activity. 3. […]

PP2A [2] = assay: PP2A activity in mouse brains after IP dosing (PP2A immunoprecipitation phosphatase assay, malachite green); type: in vivo, Balb/c mice; parameters: Average Conc. (group of 3 mice): unit not given here; conditions: brain
Procedure: as §1, §2, §3, §4, §5, §6, §7, §8, §9, §10, §11

[3] = high dose IP (mpk: 100 1.5, 113 2.2, 151 1.6, 157 2.0), 3 h
[4] = high dose IP (mpk: 100 1.5, 113 2.2, 151 1.6, 157 2.0), 6 h
[5] = low dose IP (mpk: 100 0.75, 113 1.1, 151 0.8, 153 0.85, 157 1.0), 3 h
[6] = low dose IP (mpk: 100 0.75, 113 1.1, 151 0.8, 153 0.85, 157 1.0), 6 h
[7] = high dose IP (mpk: 100 1.5, 113 2.2, 151 1.6, 153 1.7, 157 2.0), 3 h
[8] = high dose IP (mpk: 100 1.5, 113 2.2, 151 1.6, 153 1.7, 157 2.0), 6 h

COC(=O)C1C2CCC(O2)C1C(=O)N1CCN(C)CC1 (centres unmarked) [Compound 151]
Average Conc. (group of 3 mice) (PP2A [1]; [3]): 472.47 | Average Relative Activity (group, vehicle = 100) (PP2A [1]; [3]): 112.5 | Conc. (phosphate, single reading, per mouse) (PP2A [1]; [3]): 387.96 and 418.01 and 367.5 and 404.51 and 757.23 and 772.47 | Mean Conc. (per mouse) (PP2A [1]; [3]): 402.99 and 386.01 and 764.85 | Mean Conc. less IgG blank (per mouse) (PP2A [1]; [3]): 357.51 and 340.53 and 719.38 | Relative Conc. (per mouse, to vehicle) (PP2A [1]; [3]): 0.85 and 0.81 and 1.71 | Relative PP2A Activity (per mouse, vehicle = 100) (PP2A [1]; [3]): 85.13 and 81.08 and 171.29 | Average Conc. (group of 3 mice) (PP2A [1]; [4]): 241.1 | Average Relative Activity (group, vehicle = 100) (PP2A [1]; [4]): 54.24 | Conc. (phosphate, single reading, per mouse) (PP2A [1]; [4]): 320.03 and 325.26 and 287.37 and 311.32 and 231.2 and 244.26 | Mean Conc. (per mouse) (PP2A [1]; [4]): 322.65 and 299.35 and 237.73 | Mean Conc. less IgG blank (per mouse) (PP2A [1]; [4]): 277.17 and 253.87 and 192.25 | Relative Conc. (per mouse, to vehicle) (PP2A [1]; [4]): 0.62 and 0.57 and 0.43 | Relative PP2A Activity (per mouse, vehicle = 100) (PP2A [1]; [4]): 62.36 and 57.11 and 43.25 | Average Conc. (group of 3 mice) (PP2A [1]; [5]): 423.92 | Average Relative Activity (group, vehicle = 100) (PP2A [1]; [5]): 100.94 | Conc. (phosphate, single reading, per mouse) (PP2A [1]; [5]): 430.64 and 449.36 and 437.61 and 446.75 and 521.21 and 530.8 | Mean Conc. (per mouse) (PP2A [1]; [5]): 440 and 442.18 and 526 | Mean Conc. less IgG blank (per mouse) (PP2A [1]; [5]): 394.52 and 396.7 and 480.53 | Relative Conc. (per mouse, to vehicle) (PP2A [1]; [5]): 0.94 (2×) and 1.14 | Relative PP2A Activity (per mouse, vehicle = 100) (PP2A [1]; [5]): 93.94 and 94.46 and 114.42 | Average Conc. (group of 3 mice) (PP2A [1]; [6]): 307.58 | Average Relative Activity (group, vehicle = 100) (PP2A [1]; [6]): 69.2 | Conc. (phosphate, single reading, per mouse) (PP2A [1]; [6]): 260.81 and 279.97 and 333.1 and 357.92 and 428.03 and 458.51 | Mean Conc. (per mouse) (PP2A [1]; [6]): 270.39 and 345.51 and 443.27 | Mean Conc. less IgG blank (per mouse) (PP2A [1]; [6]): 224.91 and 300.03 and 397.79 | Relative Conc. (per mouse, to vehicle) (PP2A [1]; [6]): 0.51 and 0.67 and 0.89 | Relative PP2A Activity (per mouse, vehicle = 100) (PP2A [1]; [6]): 50.6 and 67.5 and 89.49 | Average Conc. (group of 3 mice) (PP2A [2]; [7]): 2166.08 | Average Relative Activity (group, vehicle = 100) (PP2A [2]; [7]): 87.89 | Conc. (phosphate, single reading, per mouse) (PP2A [2]; [7]): 3168.39 and 2285.85 and 2334.84 and 1781.17 and 1662.47 and 1991.94 | Mean Conc. (per mouse) (PP2A [2]; [7]): 2310.34 and 1721.82 and 2580.16 | Mean Conc. less IgG blank (per mouse) (PP2A [2]; [7]): 2272.32 and 1683.79 and 2542.14 | Relative Conc. (per mouse, to vehicle) (PP2A [2]; [7]): 1.05 and 0.78 and 1.17 | Relative PP2A Activity (per mouse, vehicle = 100) (PP2A [2]; [7]): 92.20 and 68.32 and 103.14 | Average Conc. (group of 3 mice) (PP2A [2]; [8]): 2082.71 | Average Relative Activity (group, vehicle = 100) (PP2A [2]; [8]): 74.99 | Conc. (phosphate, single reading, per mouse) (PP2A [2]; [8]): 1999.47 and 1945.40 and 1958.41 and 2142.56 and 2296.42 and 2382.19 | Mean Conc. (per mouse) (PP2A [2]; [8]): 1972.43 and 2050.48 and 2339.31 | Mean Conc. less IgG blank (per mouse) (PP2A [2]; [8]): 1934.40 and 2012.45 and 2301.28 | Relative Conc. (per mouse, to vehicle) (PP2A [2]; [8]): 0.79 and 0.82 and 0.94 | Relative PP2A Activity (per mouse, vehicle = 100) (PP2A [2]; [8]): 69.65 and 72.46 and 82.86 | Average Conc. (group of 3 mice) (PP2A [2]; [5]): 1599.57 | Average Relative Activity (group, vehicle = 100) (PP2A [2]; [5]): 64.90 | Conc. (phosphate, single reading, per mouse) (PP2A [2]; [5]): 1332.79 and 1495.39 and 2603.34 and 1925.68 and 1273.84 and 1194.57 | Mean Conc. (per mouse) (PP2A [2]; [5]): 1414.09 and 2264.51 and 1234.21 | Mean Conc. less IgG blank (per mouse) (PP2A [2]; [5]): 1376.06 and 2226.48 and 1196.18 | Relative Conc. (per mouse, to vehicle) (PP2A [2]; [5]): 0.63 and 1.03 and 0.55 | Relative PP2A Activity (per mouse, vehicle = 100) (PP2A [2]; [5]): 55.83 and 90.34 and 48.53 | Average Conc. (group of 3 mice) (PP2A [2]; [6]): 1662.31 | Average Relative Activity (group, vehicle = 100) (PP2A [2]; [6]): 59.85 | Conc. (phosphate, single reading, per mouse) (PP2A [2]; [6]): 1514.30 and 1280.55 and 1980.77 and 1880.56 and 1846.62 and 1699.26 | Mean Conc. (per mouse) (PP2A [2]; [6]): 1397.42 and 1930.66 and 1772.94 | Mean Conc. less IgG blank (per mouse) (PP2A [2]; [6]): 1359.40 and 1892.63 and 1734.91 | Relative Conc. (per mouse, to vehicle) (PP2A [2]; [6]): 0.56 and 0.77 and 0.71 | Relative PP2A Activity (per mouse, vehicle = 100) (PP2A [2]; [6]): 48.95 and 68.15 and 62.47
